The text below walks through data of article PMC8237267 (Journal of Medicinal Chemistry, 2021).

“Also recorded” adds a separate entry of the source.

The target of one series is T1, HDAC3 (Homo sapiens, UniProt O15379).
T1 construct: The full-length human HDACs were recombinantly expressed and purified from SF9 insect cells; host or cells: SF9 insect cells
The experiment in a line: HDAC EMSA activity assay (Nanosyn). In kind it is biochemical. Conditions: read-out: IC50 HDAC3. (In EMSA bound probe runs differently from free probe, usually more slowly.)

The target in the next series is T2, HDAC8 (Homo sapiens, UniProt Q9BY41).
T2 construct: The full-length human HDACs were recombinantly expressed and purified from SF9 insect cells; host or cells: SF9 insect cells
T2 sequence (Q9BY41 1-377): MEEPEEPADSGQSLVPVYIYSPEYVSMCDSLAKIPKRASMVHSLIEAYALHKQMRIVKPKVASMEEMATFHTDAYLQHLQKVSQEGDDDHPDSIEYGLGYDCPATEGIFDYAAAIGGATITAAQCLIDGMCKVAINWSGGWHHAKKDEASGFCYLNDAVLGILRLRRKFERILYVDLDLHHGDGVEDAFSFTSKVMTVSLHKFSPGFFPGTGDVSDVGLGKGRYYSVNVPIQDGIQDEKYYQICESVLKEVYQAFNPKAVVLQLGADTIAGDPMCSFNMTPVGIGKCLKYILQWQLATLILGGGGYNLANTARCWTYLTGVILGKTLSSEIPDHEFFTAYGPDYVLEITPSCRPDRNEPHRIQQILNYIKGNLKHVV
The experiment in a line: HDAC EMSA activity assay (Nanosyn). Conditions: EMSA (Nanosyn); read-out: IC50 HDAC8. It counts as biochemical.

The test system of another series is MRC-9. Put plainly: Cytotoxicity assay (Cell Titer-Blue, 72 h). In kind it is cell-based. The settings on record: MRC-9 (healthy fibroblasts); read-out: In cellulo IC50 MRC-9. For orientation: Resazurin is reduced to fluorescent resorufin, in cell work by metabolically active cells.
Series [1] has as its target T3, HDAC6 (Homo sapiens, UniProt Q9UBN7).
T3 sequence (Q9UBN7 1-1215): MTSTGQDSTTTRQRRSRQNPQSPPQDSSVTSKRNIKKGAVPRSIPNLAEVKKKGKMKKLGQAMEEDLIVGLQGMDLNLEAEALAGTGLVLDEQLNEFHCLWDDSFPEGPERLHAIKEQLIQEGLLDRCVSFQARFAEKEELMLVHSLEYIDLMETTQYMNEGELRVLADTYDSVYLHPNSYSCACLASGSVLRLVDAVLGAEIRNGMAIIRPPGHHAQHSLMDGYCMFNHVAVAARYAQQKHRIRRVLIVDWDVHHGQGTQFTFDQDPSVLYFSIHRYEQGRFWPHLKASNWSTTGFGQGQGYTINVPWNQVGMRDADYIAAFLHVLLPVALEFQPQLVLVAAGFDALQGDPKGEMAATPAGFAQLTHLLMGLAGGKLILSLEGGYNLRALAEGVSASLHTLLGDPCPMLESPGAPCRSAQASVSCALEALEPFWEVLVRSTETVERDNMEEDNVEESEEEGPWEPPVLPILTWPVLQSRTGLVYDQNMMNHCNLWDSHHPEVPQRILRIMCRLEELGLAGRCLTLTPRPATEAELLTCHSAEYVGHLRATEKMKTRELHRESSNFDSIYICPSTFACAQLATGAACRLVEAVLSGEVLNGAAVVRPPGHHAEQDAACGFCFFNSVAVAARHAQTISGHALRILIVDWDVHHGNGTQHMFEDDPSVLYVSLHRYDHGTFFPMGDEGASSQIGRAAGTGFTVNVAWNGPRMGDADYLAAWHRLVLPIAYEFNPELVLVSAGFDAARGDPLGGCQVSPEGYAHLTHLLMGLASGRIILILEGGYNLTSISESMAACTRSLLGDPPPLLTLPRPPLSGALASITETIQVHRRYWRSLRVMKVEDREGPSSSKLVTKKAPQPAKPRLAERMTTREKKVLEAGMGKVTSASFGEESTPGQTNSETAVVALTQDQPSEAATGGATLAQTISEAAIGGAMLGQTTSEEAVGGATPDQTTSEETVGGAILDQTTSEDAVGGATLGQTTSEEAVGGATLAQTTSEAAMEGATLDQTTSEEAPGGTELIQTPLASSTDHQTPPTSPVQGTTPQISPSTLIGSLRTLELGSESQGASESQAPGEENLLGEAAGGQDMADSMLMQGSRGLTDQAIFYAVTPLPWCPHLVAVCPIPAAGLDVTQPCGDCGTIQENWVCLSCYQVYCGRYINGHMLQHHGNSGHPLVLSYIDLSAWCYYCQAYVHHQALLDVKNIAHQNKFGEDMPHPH
The experiment in a line: Determination of Ki (Kon kinetics). Conditions: time-dependent inhibition Kon experiment. In kind it is biochemical. The protocol: Serial dilutions of compound were mixed with 3 nM HDAC6 enzyme and substrate peptide in assay buffer. Progress curves were acquired without preincubation for ∼5 h on a Labchip3000 instrument. Progress curves in the presence of compound were fit with the following equation: ((A + (Vs × x)) + (((Vo – Vs) × (1 – exp((−1 × Kobs) × t)))/Kobs)). To determine observed rate of inhibition, Vo was locked to that in control (Vi, DMSO only). Fractional steady state velocity (Vs/Vi) and Kobs values were plotted against [compound] to determine Ki and residence time.

Series [2] addresses T3, HDAC6. The experiment in a line: Time-dependent IC50 assay with preincubation (0-6 h). It counts as biochemical. The settings on record: 6 h time-dependent assay. The protocol:
The binding kinetics profile of KT-531 was also investigated by determining the association (kon)/dissociation (koff) rates as well as residence time parameters. The in vitro residence time (1/kobs) for the KT-531–HDAC6 complex was determined to be 23.18 min, as compared to 10.72 min for 1.

In the next series the test system is CD-1 mice. The experiment in a line: Maximum tolerated dose / 5 day toxicity study. In kind it is in vivo. Conditions: 20 mg/kg P.O., daily for 5 days, listed as KT-531, 20 mg/kg. The protocol: Acute toxicity of the lead inhibitors was studied using 4–12 week old male CD-1 mice (Charles River). A concentration of 20 mg/kg of inhibitor via oral gavage was administered to mice (n = 5) over 5 days. The vehicle consisted of 10% DMSO, 5% Cremophor EL, and 85% saline. Mice were monitored daily for toxicity effects including excessive changes in weight and hair as well as changes to posture and inactivity. All mouse studies were approved by the Local Animal Care Committee at the University of Toronto and Office of Laboratory Animal Welfare (OLAW). The mice were housed in Tecniplast Blueline ventilated cages with environmental enrichment and fed a Teklad 2019 diet supplemented with municipal water.

In series [3] the target is T3, HDAC6. Put plainly: HDAC EMSA activity assay (Nanosyn). In kind it is biochemical. Also noted: The full-length human HDACs were recombinantly expressed and purified from SF9 insect cells; host or cells: SF9 insect cells. Conditions: EMSA (Nanosyn); read-out: IC50 HDAC6.

T1 sequence (O15379 whole entry): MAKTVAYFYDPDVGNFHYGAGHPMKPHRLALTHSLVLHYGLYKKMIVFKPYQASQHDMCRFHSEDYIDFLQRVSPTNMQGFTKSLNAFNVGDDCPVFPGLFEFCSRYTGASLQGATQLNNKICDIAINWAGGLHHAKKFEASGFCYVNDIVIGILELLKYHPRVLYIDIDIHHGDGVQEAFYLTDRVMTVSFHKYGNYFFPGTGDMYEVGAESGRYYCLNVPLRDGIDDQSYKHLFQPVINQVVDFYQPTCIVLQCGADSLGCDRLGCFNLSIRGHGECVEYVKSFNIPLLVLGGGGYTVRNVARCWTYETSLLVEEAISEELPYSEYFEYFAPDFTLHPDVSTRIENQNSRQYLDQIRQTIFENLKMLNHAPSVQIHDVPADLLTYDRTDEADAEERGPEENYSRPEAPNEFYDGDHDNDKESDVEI
T1 sequence (Q9Y618 395-489 partner limits assumed): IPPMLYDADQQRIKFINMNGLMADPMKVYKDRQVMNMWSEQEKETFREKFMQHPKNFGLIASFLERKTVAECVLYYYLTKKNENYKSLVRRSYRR

As for `O=C(NO)c1ccc(CN(C2CC2)S(=O)(=O)c2cc(F)c(F)c(F)c2F)cc1` [Compound 14, 4-(((N-Cyclopropyl-2,3,4,5-tetrafluorophenyl)sulfonamido)methyl)-N-hydroxybenzamide], the IC50 at HDAC3 was greater than 1000 nM; on HDAC8 it was 334 nM; in the series with MRC-9, greater than 20000 nM; at HDAC6 [3] it was 8.5 nM. At HDAC6 [1], this molecule returned a Ki of 17.3 nM. Besides, on HDAC6 [2], the “reversibility of binding (IC50 over preincubation time)” value is on record as “unchanged IC50 values”. Moreover, the “in vivo toxicity” value in the series on CD-1 mice is reported as “no visible signs of toxicity or weight loss; also recorded: no observable toxicity in vivo”.

Broadly, the IC50 is the concentration at which inhibition is half-maximal.
